The data set concerns Wistar rats.
The mark [1] stands for this setting: 960 mg/kg/24 h 2-IB in 5% Solutol, continuous iv infusion.

SMILES strings stand for the structures.

Procedure: Group I: Vehicle 20% Solutol (Continuous Intravenous Infusion)
Animals received a continuous infusion of vehicle only (20% Solutol in 5% dextrose) at a dose volume of 4 mL/kg/h for 24 hours.
Group II: Vehicle 5% Solutol (Continuous Intravenous Infusion)
Animals received a continuous infusion of vehicle only (5% Solutol in 5% dextrose) at a dose volume of 4 mL/kg/h for approximately 96 hours.
Group III: 960 mg/kg/24 h of 2-IBin 5% Solutol (Continuous Intravenous Infusion).

As for `N=C1N[C@H]2[C@H](CS[C@H]2CCCCC(=O)O)N1` [Formulation 2-IB, 2-iminobiotin], under setting [1], the bilirubin levels result is on record as “within the normal range”; the body weights entry is “increased for two animals”; the “clinical chemistry at the end of treatment” value is “slight to moderate increase in aspartate aminotransferase (1/2), alkaline phosphatase (1/2), and glucose (2/2)”; the “creatinine and urine at the end of treatment” value was “high values for creatinine and urine (1/2)”. Moreover, under setting [1], the “macroscopic findings at necropsy” value was “oedema (2/3), pelvic dilation of the kidneys (2/3), enlarged liver (1/3), enlarged iliac lymph node (113), dark spots on the lungs (1/3), and fibrin-like coating in or around the femoral vein”. In addition, where the note is “960 mg/kg/24 h 2-IB in 5% Solutol, continuous iv infusion, Days 2-3”, the clinical signs entry is “hunched posture, piloerection and pallor”. The mortality entry (960 mg/kg/24 h 2-IB in 5% Solutol/5% dextrose, continuous iv infusion 4 mL/kg/h, terminated after 46 hours) is given as “One animal died after 46 hours of infusion”.
